{"source": "paper PMC12175894", "about": "(Science Advances, 2025)", "key": {"5-HT1AR [1]": {"target": "T1, 5-HT1AR (Homo sapiens, UniProt P08908)", "T1 sequence (P08908 1-422)": "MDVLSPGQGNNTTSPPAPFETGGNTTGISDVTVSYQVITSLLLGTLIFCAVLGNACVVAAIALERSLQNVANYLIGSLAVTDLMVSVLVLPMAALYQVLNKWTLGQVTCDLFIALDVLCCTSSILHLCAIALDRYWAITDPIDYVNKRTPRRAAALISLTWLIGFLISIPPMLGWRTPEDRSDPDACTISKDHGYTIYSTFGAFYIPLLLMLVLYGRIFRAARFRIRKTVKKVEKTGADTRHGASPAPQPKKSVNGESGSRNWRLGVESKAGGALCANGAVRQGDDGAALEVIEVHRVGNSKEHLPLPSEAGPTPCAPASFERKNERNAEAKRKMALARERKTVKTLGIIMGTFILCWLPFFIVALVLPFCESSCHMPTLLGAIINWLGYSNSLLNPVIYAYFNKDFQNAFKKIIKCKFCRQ", "assay": "IP-One accumulation with hybrid Gαqi in HEK293T", "type": "cell-based", "parameters": "host or cells: HEK293T, HEK293A, HEK293AΔGs, HEK293AΔGi/o, HEK293AΔARRB1/B2"}, "5-HT1AR [2]": {"target": "T1, 5-HT1AR", "assay": "High-throughput screening with radioligand displacement, single point", "type": "binding", "parameters": "host or cells: HEK293T, transient; membranes", "conditions": "compound at 10 nM"}, "adrenergic α2B": {"target": "adrenergic α2B (Homo sapiens, UniProt P18089)", "sequence (P18089 whole entry)": "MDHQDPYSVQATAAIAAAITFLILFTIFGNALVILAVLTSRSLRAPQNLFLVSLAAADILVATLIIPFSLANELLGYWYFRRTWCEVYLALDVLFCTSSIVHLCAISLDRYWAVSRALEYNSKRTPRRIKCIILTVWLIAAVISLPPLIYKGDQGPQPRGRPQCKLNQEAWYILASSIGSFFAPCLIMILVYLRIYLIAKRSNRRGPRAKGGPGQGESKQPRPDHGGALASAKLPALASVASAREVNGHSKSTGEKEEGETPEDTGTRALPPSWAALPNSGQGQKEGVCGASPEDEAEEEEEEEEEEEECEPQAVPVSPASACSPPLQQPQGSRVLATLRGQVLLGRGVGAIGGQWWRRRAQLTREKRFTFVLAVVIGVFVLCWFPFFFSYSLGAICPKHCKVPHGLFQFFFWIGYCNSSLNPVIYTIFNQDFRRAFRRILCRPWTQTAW", "assay": "Radioligand displacement, [3H]RX821002"}, "neurotensin NTS2": {"target": "neurotensin NTS2 (Homo sapiens, UniProt O95665)", "sequence (O95665 whole entry)": "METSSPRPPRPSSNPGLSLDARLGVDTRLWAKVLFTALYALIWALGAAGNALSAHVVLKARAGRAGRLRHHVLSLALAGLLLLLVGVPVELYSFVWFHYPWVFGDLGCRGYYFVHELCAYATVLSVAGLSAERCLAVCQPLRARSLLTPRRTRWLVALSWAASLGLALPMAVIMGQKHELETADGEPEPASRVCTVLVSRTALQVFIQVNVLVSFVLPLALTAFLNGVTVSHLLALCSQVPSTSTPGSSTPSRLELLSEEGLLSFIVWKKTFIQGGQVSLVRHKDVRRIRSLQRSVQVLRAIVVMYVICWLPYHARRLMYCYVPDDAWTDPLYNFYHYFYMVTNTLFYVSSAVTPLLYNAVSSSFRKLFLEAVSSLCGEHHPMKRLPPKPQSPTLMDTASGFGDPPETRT", "assay": "Radioligand displacement, [3H]NT(8-13)"}, "5-HT1BR": {"target": "5-HT1BR (Homo sapiens, UniProt P28222)", "sequence (P28222 whole entry)": "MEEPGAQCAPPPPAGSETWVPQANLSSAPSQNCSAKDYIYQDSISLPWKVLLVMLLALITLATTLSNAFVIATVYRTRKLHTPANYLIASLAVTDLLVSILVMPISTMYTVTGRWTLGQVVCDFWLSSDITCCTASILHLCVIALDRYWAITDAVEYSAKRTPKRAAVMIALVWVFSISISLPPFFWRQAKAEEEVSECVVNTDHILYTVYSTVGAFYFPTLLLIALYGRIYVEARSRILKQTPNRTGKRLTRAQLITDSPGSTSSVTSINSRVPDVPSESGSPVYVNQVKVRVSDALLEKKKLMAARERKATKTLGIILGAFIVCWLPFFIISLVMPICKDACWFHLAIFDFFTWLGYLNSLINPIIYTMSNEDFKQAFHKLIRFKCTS", "assay": "BRET Gαi1 activation"}, "5-HT1AR Q97^2.65A": {"target": "T2, 5-HT1AR Q97^2.65A (Homo sapiens, UniProt P08908, Q97A)", "T2 sequence (P08908 1-422 Q97A)": "T1 sequence (P08908 1-422) with Q97A", "assay": "Radioligand competition, displacement of [3H]WAY100635", "type": "binding", "conditions": "5-HT1AR Q97A; HEK 293T membranes; read-out: Ki [nM ± SEM]"}, "muscarinic M1": {"target": "muscarinic M1 (Homo sapiens, UniProt P11229)", "sequence (P11229 whole entry)": "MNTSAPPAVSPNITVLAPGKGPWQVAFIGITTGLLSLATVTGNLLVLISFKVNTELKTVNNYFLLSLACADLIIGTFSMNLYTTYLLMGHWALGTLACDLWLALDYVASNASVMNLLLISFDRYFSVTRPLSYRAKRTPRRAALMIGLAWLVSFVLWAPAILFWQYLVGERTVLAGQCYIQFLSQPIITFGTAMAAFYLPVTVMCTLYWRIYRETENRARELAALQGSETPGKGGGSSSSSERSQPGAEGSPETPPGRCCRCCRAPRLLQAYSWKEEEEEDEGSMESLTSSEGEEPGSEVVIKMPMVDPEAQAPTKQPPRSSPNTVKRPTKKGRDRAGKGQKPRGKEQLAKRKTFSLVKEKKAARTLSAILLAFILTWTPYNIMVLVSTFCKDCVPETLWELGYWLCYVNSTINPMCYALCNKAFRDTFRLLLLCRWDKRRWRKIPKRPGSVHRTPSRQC", "assay": "Radioligand displacement, [3H]NMS"}, "muscarinic M2": {"target": "muscarinic M2 (Homo sapiens, UniProt P08172)", "sequence (P08172 whole entry)": "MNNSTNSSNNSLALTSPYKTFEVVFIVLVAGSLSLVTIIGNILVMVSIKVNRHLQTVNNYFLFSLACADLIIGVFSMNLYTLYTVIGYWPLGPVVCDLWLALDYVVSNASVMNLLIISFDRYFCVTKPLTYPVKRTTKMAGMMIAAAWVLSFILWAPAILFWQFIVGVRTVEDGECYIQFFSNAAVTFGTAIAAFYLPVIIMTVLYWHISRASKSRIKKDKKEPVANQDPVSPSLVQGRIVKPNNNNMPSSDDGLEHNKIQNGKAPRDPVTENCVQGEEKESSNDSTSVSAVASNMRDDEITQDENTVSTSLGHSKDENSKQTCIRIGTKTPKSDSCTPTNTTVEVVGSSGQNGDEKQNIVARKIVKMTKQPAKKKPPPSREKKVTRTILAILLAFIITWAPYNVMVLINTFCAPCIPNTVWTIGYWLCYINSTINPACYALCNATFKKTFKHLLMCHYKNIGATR", "assay": "Radioligand displacement, [3H]NMS"}, "dopamine D1": {"target": "dopamine D1 (Homo sapiens, UniProt P21728)", "sequence (P21728 whole entry)": "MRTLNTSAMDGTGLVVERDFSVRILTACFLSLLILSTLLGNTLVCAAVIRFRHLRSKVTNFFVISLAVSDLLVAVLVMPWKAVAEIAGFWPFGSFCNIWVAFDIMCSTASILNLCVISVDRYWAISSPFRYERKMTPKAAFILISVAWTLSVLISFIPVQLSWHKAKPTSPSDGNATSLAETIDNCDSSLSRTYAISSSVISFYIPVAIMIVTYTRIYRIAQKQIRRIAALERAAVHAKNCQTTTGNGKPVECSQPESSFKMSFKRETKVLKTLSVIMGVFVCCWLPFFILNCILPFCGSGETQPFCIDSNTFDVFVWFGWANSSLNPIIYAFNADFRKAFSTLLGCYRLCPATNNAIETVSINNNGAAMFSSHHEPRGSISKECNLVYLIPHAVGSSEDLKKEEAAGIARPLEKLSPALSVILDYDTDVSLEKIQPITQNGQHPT", "assay": "Radioligand displacement, [3H]SCH23390"}, "5-HT1DR": {"target": "5-HT1DR (Homo sapiens, UniProt P28221)", "sequence (P28221 whole entry)": "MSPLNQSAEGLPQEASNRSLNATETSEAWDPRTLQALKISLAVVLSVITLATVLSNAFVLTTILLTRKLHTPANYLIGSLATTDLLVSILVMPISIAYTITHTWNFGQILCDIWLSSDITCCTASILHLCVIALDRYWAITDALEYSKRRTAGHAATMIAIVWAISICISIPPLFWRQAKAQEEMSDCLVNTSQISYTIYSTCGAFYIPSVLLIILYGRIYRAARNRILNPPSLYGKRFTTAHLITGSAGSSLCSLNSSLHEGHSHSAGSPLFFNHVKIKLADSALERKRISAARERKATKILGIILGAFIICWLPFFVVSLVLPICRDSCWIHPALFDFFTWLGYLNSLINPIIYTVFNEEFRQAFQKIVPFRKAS", "assay": "BRET Gαi1 activation"}, "5-HT1FR": {"target": "5-HT1FR (Homo sapiens, UniProt P30939)", "sequence (P30939 whole entry)": "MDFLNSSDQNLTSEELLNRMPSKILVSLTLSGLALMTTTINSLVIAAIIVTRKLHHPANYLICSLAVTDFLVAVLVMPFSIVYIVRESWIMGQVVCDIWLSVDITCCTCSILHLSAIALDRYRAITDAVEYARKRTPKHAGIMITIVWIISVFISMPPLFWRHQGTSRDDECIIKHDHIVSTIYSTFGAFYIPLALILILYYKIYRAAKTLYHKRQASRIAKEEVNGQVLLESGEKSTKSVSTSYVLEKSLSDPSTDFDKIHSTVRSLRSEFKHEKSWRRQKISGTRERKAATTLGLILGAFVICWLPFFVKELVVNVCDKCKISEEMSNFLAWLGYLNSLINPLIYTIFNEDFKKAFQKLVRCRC", "assay": "BRET Gαi1 activation"}, "5-HT1AR + Gαi1": {"target": "5-HT1AR + Gαi1 (Homo sapiens, UniProt P08908)", "assay": "cell-based"}, "orexin OX2": {"target": "orexin OX2 (Homo sapiens, UniProt O43614)", "sequence (O43614 whole entry)": "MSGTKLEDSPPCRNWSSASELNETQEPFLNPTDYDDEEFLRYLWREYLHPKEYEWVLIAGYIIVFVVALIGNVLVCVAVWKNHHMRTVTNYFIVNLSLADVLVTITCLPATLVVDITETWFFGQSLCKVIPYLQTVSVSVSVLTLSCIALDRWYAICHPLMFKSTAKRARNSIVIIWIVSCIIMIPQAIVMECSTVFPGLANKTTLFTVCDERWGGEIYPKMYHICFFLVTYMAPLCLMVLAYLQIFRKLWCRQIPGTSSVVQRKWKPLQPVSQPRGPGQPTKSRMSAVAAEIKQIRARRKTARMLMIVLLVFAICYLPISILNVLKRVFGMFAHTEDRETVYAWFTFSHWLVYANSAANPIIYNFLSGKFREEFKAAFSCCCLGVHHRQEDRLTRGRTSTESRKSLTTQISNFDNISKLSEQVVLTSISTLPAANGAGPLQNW", "assay": "Radioligand displacement, [3H]EMPA"}, "orexin OX1": {"target": "orexin OX1 (Homo sapiens, UniProt O43613)", "sequence (O43613 whole entry)": "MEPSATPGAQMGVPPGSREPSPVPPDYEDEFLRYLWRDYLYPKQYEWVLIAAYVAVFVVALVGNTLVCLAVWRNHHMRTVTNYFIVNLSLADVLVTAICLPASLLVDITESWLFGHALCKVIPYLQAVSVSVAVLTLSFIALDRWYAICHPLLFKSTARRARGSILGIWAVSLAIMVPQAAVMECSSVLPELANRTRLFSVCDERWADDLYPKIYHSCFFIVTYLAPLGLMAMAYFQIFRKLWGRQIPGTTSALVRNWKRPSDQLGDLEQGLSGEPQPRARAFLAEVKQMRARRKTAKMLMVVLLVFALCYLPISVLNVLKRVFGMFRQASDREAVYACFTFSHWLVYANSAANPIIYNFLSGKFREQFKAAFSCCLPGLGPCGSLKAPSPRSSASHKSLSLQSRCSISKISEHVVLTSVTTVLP", "assay": "Radioligand displacement, [3H]SB674042"}, "muscarinic M3": {"target": "muscarinic M3 (Homo sapiens, UniProt P20309)", "sequence (P20309 whole entry)": "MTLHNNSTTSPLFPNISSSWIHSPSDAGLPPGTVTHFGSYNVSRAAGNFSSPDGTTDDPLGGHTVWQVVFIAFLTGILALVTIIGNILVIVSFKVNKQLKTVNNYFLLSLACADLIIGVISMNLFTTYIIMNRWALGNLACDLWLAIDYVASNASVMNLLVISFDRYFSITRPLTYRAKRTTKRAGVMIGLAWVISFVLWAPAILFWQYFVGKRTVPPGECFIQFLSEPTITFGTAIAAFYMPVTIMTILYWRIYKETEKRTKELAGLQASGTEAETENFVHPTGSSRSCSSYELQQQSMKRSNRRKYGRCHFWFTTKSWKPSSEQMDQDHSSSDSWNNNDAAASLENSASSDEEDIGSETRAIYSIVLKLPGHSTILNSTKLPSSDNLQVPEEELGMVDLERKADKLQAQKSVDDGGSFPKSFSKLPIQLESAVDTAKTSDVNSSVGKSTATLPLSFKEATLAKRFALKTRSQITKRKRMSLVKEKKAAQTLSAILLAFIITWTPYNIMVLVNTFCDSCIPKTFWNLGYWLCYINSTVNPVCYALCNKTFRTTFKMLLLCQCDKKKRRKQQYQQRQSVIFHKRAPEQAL", "assay": "Radioligand displacement, [3H]NMS"}, "[3]": {"assay": "In vivo pharmacokinetic studies", "conditions": "mouse, CSF, ip; male C57BL/6 mice, 10 mg/kg i.p."}, "[4]": {"target": "T3, 5-HT1AR F112^3.28W + M92^2.60F (Homo sapiens, UniProt P08908, F112W/M92F)", "T3 sequence (P08908 1-422 M92F/F112W)": "T1 sequence (P08908 1-422) with M92F, F112W", "assay": "GloSensor cAMP accumulation in HEK293AΔGi/o", "type": "cell-based", "conditions": "read-out: Emax [% ± SEM], cAMP accumulation"}}, "note": "Numbering of substitutions follows the chain as printed."}
{"smiles": "COc1ccccc1OCCNCCCOc1ccc2c(c1)NC(=O)CO2", "note": "[ST171]", "values": [{"measurement": "Emax", "setting": "5-HT1AR [1]; HEK-293T, read-out: Emax[Gqi], IP accumulation", "value": 43, "unit": "%"}, {"measurement": "EC50", "setting": "5-HT1AR [1]; hybrid Gαqi, HEK293T, read-out: EC50[Gqi], IP accumulation", "value": "0.013 ± 0.0029", "unit": "µM"}, {"measurement": "displacement of the radiolabeled ligand [3H]WAY100,635", "setting": "5-HT1AR [2]", "value": "more than 80%"}, {"measurement": "Ki", "setting": "adrenergic α2B; Ki [nM ± SD]", "value": "110 ± 60", "unit": "nM"}, {"measurement": "Ki", "setting": "adrenergic α2B; pKi", "value": 103, "unit": "nM"}, {"measurement": "Ki", "setting": "neurotensin NTS2; Ki [nM ± SD]", "value": "> 50000", "unit": "nM"}, {"measurement": "Ki", "setting": "neurotensin NTS2; pKi", "value": "> 50100", "unit": "nM"}, {"measurement": "EC50", "setting": "5-HT1BR", "value": 0.0037, "unit": "µM"}, {"measurement": "Emax", "setting": "5-HT1BR", "value": 94, "unit": "%"}, {"measurement": "Ki", "setting": "5-HT1AR Q97^2.65A", "value": 63, "unit": "nM"}, {"measurement": "Ki", "setting": "muscarinic M1; Ki [nM ± SD]", "value": "10000 ± 920", "unit": "nM"}, {"measurement": "Ki", "setting": "muscarinic M1; pKi", "value": 10300, "unit": "nM"}, {"measurement": "Ki", "setting": "muscarinic M2; Ki [nM ± SD]", "value": "18000 ± 9200", "unit": "nM"}, {"measurement": "Ki", "setting": "muscarinic M2; pKi", "value": 16300, "unit": "nM"}, {"measurement": "Ki", "setting": "dopamine D1; Ki [nM ± SD]", "value": "260 ± 170", "unit": "nM"}, {"measurement": "Ki", "setting": "dopamine D1; pKi", "value": 209, "unit": "nM"}, {"measurement": "EC50", "setting": "5-HT1DR", "value": 0.0057, "unit": "µM"}, {"measurement": "Emax", "setting": "5-HT1DR", "value": 54, "unit": "%"}, {"measurement": "Emax", "setting": "5-HT1FR", "value": "< 10", "unit": "%"}, {"measurement": "EC50", "setting": "5-HT1AR + Gαi1", "value": "0.0025 ± 0.0007", "unit": "µM"}, {"measurement": "Ki", "setting": "orexin OX2; Ki [nM ± SD]", "value": "> 50000", "unit": "nM"}, {"measurement": "Ki", "setting": "orexin OX2; pKi", "value": "> 50100", "unit": "nM"}, {"measurement": "Ki", "setting": "orexin OX1; Ki [nM ± SD]", "value": "> 50000", "unit": "nM"}, {"measurement": "Ki", "setting": "orexin OX1; pKi", "value": "> 50100", "unit": "nM"}, {"measurement": "Ki", "setting": "muscarinic M3; Ki [nM ± SD]", "value": "49000 ± 28000", "unit": "nM"}, {"measurement": "Ki", "setting": "muscarinic M3; pKi", "value": 41500, "unit": "nM"}, {"measurement": "Cmax", "setting": "[3]", "value": "~40", "unit": "nM"}, {"measurement": "Emax", "setting": "[4]", "value": "< 5", "unit": "%"}]}
